Assay [1] can be described thus: concentration-response yeast growth inhibition under permissive conditions, counter-assay for yeast lifespan-shortening chemical project (AID 850).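 Also: growth read as optical density after one day of incubation.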 Conditions: Saccharomyces cerevisiae growth inhibition, permissive control, measured here: maximum growth inhibition, stronger effect = higher value.
Assay [2] relates to Saccharomyces cerevisiae growth inhibition, permissive control. The assay is described as above.

Active and inactive are the calls of the source. No rule for the calls is given here.

Among the data in PubChem BioAssay AID850 (SRMLSC, 2007) are inhibition and IC50 values, retold here.

As a reminder, the inhibition is the drop in the measured response relative to a control, in per cent. Usually IC50 stands for the concentration that inhibits the measured activity by half. Regarding `Cc1ccc(-n2c(C)cc(C(=O)COC(=O)c3ccc[nH]c3=O)c2C)cc1C`, the inhibition in assay [1] (at 50 µM) came out at 99.6%. Further, the IC50 in assay [2] was 10.8 µM.
Turning to `C=CCn1c2ccccc2c2nnc(SCN3C(=O)c4ccccc4C3=O)nc21`, in assay [1] (at 6.25 µM), the inhibition worked out at 12.7%. The IC50 in assay [2] is > 100 µM (inactive).
In the case of `N#C/C(=N/O)c1nc(-c2ccc(F)cc2)cs1`, the inhibition in assay [1] (at 50 µM) turned out to be 78.8%. Besides, the half-inhibitory concentration (IC50) in assay [2] was 15.9 µM.
Turning to `COc1ccc(OC)c(C2CC(=O)N3CN(c4cccc(Cl)c4)CSC3=C2C#N)c1` (stereo not drawn), the inhibition in assay [1] (at 25 µM) turned out to be 15.2%. The IC50 in assay [2] is > 100 µM (inactive).
For the molecule `CC(NC(=O)Nc1ccc(Cl)cc1)C(c1cccs1)N1CCOCC1` (stereo not drawn), in assay [1] (at 0.781 µM), the inhibition turned out to be 8.7%. Also, the IC50 in assay [2] is > 100 µM (inactive).
In the case of `CCOC(=O)c1ccc(-n2[nH]c(-c3ccccc3)cc2=O)cc1`, the inhibition in assay [1] (at 12.5 µM) came out at 47.7%. For the same molecule, the IC50 in assay [2] was 47.7 µM.
Take `Cc1ccc(C(=O)O)cc1N=Cc1cc(Br)cc(Br)c1O`: the inhibition in assay [1] (at 50 µM) was found to be 97.1%. The IC50 in assay [2] is 6.04 µM.
On to `O=C(O)c1cc2c(s1)-c1ccccc1CC2`, for which the inhibition in assay [1] (at 50 µM) came to 47.3%. The IC50 in assay [2] was 50.5 µM.
Take `COc1cccc(/C=N/Nc2ncc(C(F)(F)F)cc2Cl)c1O`: the inhibition in assay [1] (at 50 µM) is 29.3%. In addition, the IC50 in assay [2] was > 100 µM (inactive).
In the same order, the values of `Oc1cccc2ccc(Nc3ccccn3)nc12` are 99.4% and 12.5 µM.
In the same order, the values of `Oc1ccc(CN2CCCCC2)c2cccnc12` are 37.4% and 51.8 µM.
For `COc1ccc(-c2n[nH]c(C(F)(F)F)c2-c2cc3ccccc3o2)c(O)c1`, in that order: 53.6% and 36.6 µM.
Regarding `CSC1=NSC2=NC(=O)/C(=C\c3coc4ccccc4c3=O)C(=N)N12`, the inhibition in assay [1] (at 50 µM) is 19.2%. The IC50 in assay [2] was > 100 µM (inactive).
In the same order, the values of `Oc1c(Br)cc(Br)cc1C=Nc1ccc2c(c1)OCO2` are 86% and 36.5 µM.
As to `O=C1c2ccccc2C(=O)N1Cc1ccco1`, the inhibition in assay [1] (at 25 µM) is 8.88%. Also, the IC50 in assay [2] is > 100 µM (inactive).
Consider `O=C(O)c1cc2ccc3ccccc3c2oc1=O`, for which the inhibition in assay [1] (at 50 µM) was determined as 64.3%. The 50% inhibitory concentration (IC50) in assay [2] is 32 µM.
In the same order, the values of `COc1ccc(NC(=O)C2CCCN2S(=O)(=O)c2cccc3cccnc23)c(OC)c1` (stereo not drawn) are 102% and 5.82 µM.
For `Cc1nnc(C)n1/N=C/c1cc(Br)cc(Br)c1O`, in that order: 99.2% and 0.324 µM.
For `CCOCCCNC(=O)c1ccc(Br)cc1`, the inhibition in assay [1] (at 1.563 µM) was 27.6%. Moreover, the IC50 in assay [2] is > 100 µM (inactive).
With `Cc1cccc(C(=O)O/N=C/c2c(N3CCOCC3)n(C)c3ccccc23)c1`, the inhibition in assay [1] (at 50 µM) amounted to 48.1%. For the same molecule, the IC50 in assay [2] was 50.1 µM.
As for `CCCC(=O)NC(c1cccs1)c1cc([N+](=O)[O-])c2cccnc2c1O` (stereo not drawn), the inhibition in assay [1] (at 50 µM) was found to be 96.5%. The IC50 in assay [2] is 24.1 µM.
With `CC(Oc1ccc2ccccc2c1)C(=O)NNC(=S)NC(=O)c1ccco1` (stereo not drawn), the inhibition in assay [1] (at 50 µM) is 98.6%. The IC50 in assay [2] is 11.3 µM.
As for `Cc1cc2nc(C)n3c4ccccc4nc3n2n1`, the inhibition in assay [1] (at 50 µM) amounted to 63.4%. Also, the IC50 in assay [2] was 35.3 µM.
For the molecule `CC(C)(C)n1nc(-c2ccc(Cl)cc2)c2c(N)ncnc21`, the inhibition in assay [1] (at 50 µM) was 80.7%. Also, the IC50 in assay [2] is 1.1 µM.
Turning to `O=C(O)CSc1cccc[n+]1[O-]`, the inhibition in assay [1] (at 50 µM) came to 94.2%. For the same molecule, the concentration for half-maximal inhibition (IC50) in assay [2] is 28.7 µM.
Turning to `Cc1[nH]n(-c2ccccc2)c(=O)c1/C=N/N1C(=O)c2ccc3c4c(ccc(c24)C1=O)CC3`, in assay [1] (at 0.781 µM), the inhibition is 8.51%. Further, the IC50 in assay [2] was > 100 µM (inactive).
Take `Cc1nc2c(c(C)c1C#N)C(=O)c1ccccc1-2`: the inhibition in assay [1] (at 50 µM) was 16%. In addition, the IC50 in assay [2] was > 100 µM (inactive).
For `CCC1C(=O)N=C(SCC(=O)Nc2ccccc2)NC1=O` (stereo not drawn), in that order: 52.5% and 46.5 µM.
In the case of `CCCS(=O)(=O)c1nnnn1-c1cccc(OC)c1`, the inhibition in assay [1] (at 50 µM) was determined as 99%. For the same molecule, in assay [2], the IC50 was 5.29 µM.
With `CCCCSc1nc(C)c(C(C)=O)cc1C#N`, in assay [1] (at 12.5 µM), the inhibition came to 3.31%. Besides, the IC50 in assay [2] is > 100 µM (inactive).
Regarding `CCOC(=O)c1c(/N=C/c2cc([N+](=O)[O-])ccc2O)sc(C)c1C`, the inhibition in assay [1] (at 25 µM) is 52.7%. In assay [2], the IC50 was 39.9 µM.
On to `Oc1cccc(/C=N/NC(=S)Nc2cccnc2)c1O`, for which the inhibition in assay [1] (at 0.781 µM) worked out at 7.13%. In addition, the IC50 in assay [2] was > 100 µM (inactive).
With `COc1ccc(S(=O)(=O)n2oc(=O)cc2-c2ccccc2)cc1OC`, the inhibition in assay [1] (at 1.563 µM) stood at 9.27%. The IC50 in assay [2] is > 100 µM (inactive).
Turning to `Cc1conc1NC(c1cccs1)c1ccc2cccnc2c1O` (stereo not drawn), in assay [1] (at 50 µM), the inhibition turned out to be 69.2%. Further, in assay [2], the half-inhibitory concentration (IC50) is 44.9 µM.
